Five compounds from patent US7875587B2, “Peptide analogues of GIP for treatment of diabetes, insulin resistance and obesity” (UUTECH Limited, priority 2004, dated 2011) can be followed below.

One series deals with BRIN-BD11 cells. The series is described as follows: Acute tests for insulin secretion from BRIN-BD11 cells. The format is cell-based. The following applies: 5.6 and 16.7 mM glucose, 10^-13 to 10^-8 M peptide. As for the experimental part: Culture of insulin secreting cells. BRIN-BD11 cells were cultured in sterile tissue culture flasks (Corning, Glass Works, UK) using RPMI-1640 tissue culture medium containing 10% (v/v) foetal calf serum, 1% (v/v) antibiotics (100 U/ml penicillin, 0.1 mg/ml streptomycin) and 11.1 mM glucose. The cells were maintained at 37° C. in an atmosphere of 5% CO2 and 95% air using a LEEC incubator (Laboratory Technical Engineering, Nottingham, UK).
Acute tests for insulin secretion. Before experimentation, the cells were harvested from the surface of the tissue culture flasks with the aid of trypsin/EDTA (Gibco), seeded into 24-multiwell plates (Nunc, Roskilde, Denmark) at a density of 1.5×10^5 cells per well, and allowed to attach overnight at 37° C. Acute tests for insulin release were preceded by 40 minutes pre-incubation at 37° C. in 1.0 ml Krebs Ringer bicarbonate buffer (115 mM NaCl, 4.7 mM KCl, 1.28 mM CaCl2, 1.2 mM KH2PO4, 1.2 mM MgSO4, 10 mM NaHCO3, 5 g/l bovine serum albumin, pH 7.4) supplemented with 1.1 mM glucose. Test incubations were performed (n=12) at two glucose concentrations (5.6 mM and 16.7 mM) with a range of concentrations (10^−13 to 10^−8 M) of GIP or GIP analogues. After 20 minutes incubation, the buffer was removed from each well and aliquots (200 μl) were used for measurement of insulin by radioimmunoassay.

A short description of series [1]: Degradation of GIP and analogues by human plasma (HPLC). The format is in vitro ADME. The following applies: for % Intact peptide remaining after incubations with human plasma: 0 h; for effect of DPA on plasma degradation of the peptide: 24 hours in the presence of DPA; for remaining at 2 h, 20 µg/ml / remaining at 4 h, 20 µg/ml / remaining at 8 h, 20 µg/ml / remaining at 24 h, 20 µg/ml: human, plasma, read-out: % Intact peptide remaining after incubations with human plasma; for remaining at 2 h, 20 µg/ml: pH 7.8, 2 h; for remaining at 4 h, 20 µg/ml: pH 7.8, 4 h; for remaining at 8 h, 20 µg/ml: pH 7.8, 8 h. As to the method:
Degradation of GIP and Tyr^1-glucitol GIP by human plasma. […] […] The reactions were terminated by addition of 5 μl of TFA and the final volume adjusted to 1.0 ml using 0.1% v/v TFA/water. Samples were centrifuged (13,000 g, 5 minutes) and the supernatant applied to a C-18 Sep-Pak cartridge (Millipore-Waters) which was previously primed and washed with 0.1% (v/v) TFA/water. […] The volume was adjusted to 1.0 ml with 0.12% (v/v) TFA/water prior to HPLC purification.
(§1) HPLC analysis of degraded GIP and Tyr^1-glucitol GIP. […] Using 0.1% (v/v) TFA in 70% acetonitrile/H20, the concentration of acetonitrile in the eluting solvent was raised from 0% to 31.5% over 15 min, to 38.5% over 30 minutes and from 38.5% to 70% over 5 minutes, using linear gradients. The absorbance was monitored at 206 nm and peak areas evaluated using a model 2221 LKB integrator. Samples recovered manually were concentrated using a Speed-Vac concentrator.
(§2) Electrospray ionization-mass spectrometry (ESI-MS) was carried out as described in Example 2. Degradation of GIP and novel GIP analogues by DPP IV and human plasma was carried out as described in Example 2.

The target in the next series is T1, DPP IV (Sus scrofa, UniProt P22411).
T1 construct: purchased Sigma (Poole, Dorset, UK)
The series is described as follows: Degradation of GIP and analogues by DPP IV (HPLC). The format is in vitro ADME. The following applies: for resistance to in vitro degradation with DPP IV relative to native GIP: Example 3, summary of Table 1; for % Intact peptide remaining after time (h) / remaining at 2 h, 1 mmol/l / remaining at 4 h, 1 mmol/l / remaining at 8 h, 1 mmol/l / remaining at 24 h, 1 mmol/l: incubation with DPP IV; for % Intact peptide remaining after time (h): 0 h; for remaining at 2 h, 1 mmol/l / remaining at 4 h, 1 mmol/l / remaining at 8 h, 1 mmol/l / remaining at 24 h, 1 mmol/l: isolated enzyme dpp iv, pH 7.8, read-out: % Intact peptide remaining after time (h). As to the method: Degradation of GIP and Tyr^1-glucitol GIP by DPP IV. HPLC-purified GIP or Tyr^1-glucitol GIP were incubated at 37° C. with DPP-IV (5 mU) for various time periods in a reaction mixture made up to 500 μl with 50 mmol/l triethanolamine-HCl, pH 7.8 (final peptide concentration 1 mmol/l). Enzymatic reactions were terminated after 0, 2, 4 and 12 hours by addition of 5 μl of 10% (v/v) TFA/water. Samples were made up to a final volume of 1.0 ml with 0.12% (v/v) TFA and stored at −20° C. prior to HPLC analysis.
as §1, §2

Where [2] appears, read: pH 7.8, 24 hours in the presence of DPA (diprotin A).

Like-named read-outs stand apart in the source and are kept apart here. No end group written: not given here.

T1 sequence (P22411 whole entry): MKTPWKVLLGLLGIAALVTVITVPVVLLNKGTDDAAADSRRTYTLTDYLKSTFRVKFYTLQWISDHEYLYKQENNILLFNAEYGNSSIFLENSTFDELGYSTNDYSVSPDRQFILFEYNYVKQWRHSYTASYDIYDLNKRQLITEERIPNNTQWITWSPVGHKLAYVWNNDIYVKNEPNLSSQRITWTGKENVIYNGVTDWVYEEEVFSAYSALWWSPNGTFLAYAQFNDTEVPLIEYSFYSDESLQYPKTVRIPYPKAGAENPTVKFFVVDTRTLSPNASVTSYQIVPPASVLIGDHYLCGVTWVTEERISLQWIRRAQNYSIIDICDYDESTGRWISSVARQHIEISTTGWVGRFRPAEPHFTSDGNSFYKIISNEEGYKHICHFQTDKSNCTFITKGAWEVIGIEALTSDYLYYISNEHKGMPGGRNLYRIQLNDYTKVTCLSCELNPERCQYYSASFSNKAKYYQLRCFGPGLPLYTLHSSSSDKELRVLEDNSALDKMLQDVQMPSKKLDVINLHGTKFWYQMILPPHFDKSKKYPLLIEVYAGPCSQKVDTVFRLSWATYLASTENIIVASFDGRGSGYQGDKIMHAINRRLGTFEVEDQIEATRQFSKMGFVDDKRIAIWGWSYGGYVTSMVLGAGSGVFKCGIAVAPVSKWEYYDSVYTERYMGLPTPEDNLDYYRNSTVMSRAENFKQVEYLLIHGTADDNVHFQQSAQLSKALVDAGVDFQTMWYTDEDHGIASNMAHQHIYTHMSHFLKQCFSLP

The term share remaining denotes what is left of the initial amount, in per cent. Take `CC[C@H](NC(=O)[C@@H](N)Cc1ccc(O)cc1)C(=O)N[C@@H](CCC(=O)O)C(=O)NCC(=O)N[C@H](C(=O)N[C@@H](Cc1ccccc1)C(=O)N[C@H](C(=O)N[C@@H](CO)C(=O)N[C@@H](CC(=O)O)C(=O)N[C@@H](Cc1ccc(O)cc1)C(=O)N[C@@H](CO)C(=O)N[C@H](C(=O)N[C@@H](C)C(=O)N[C@@H](CCSC)C(=O)N[C@@H](CC(=O)O)C(=O)N[C@@H](CCCCN)C(=O)N[C@H](C(=O)N[C@@H](Cc1c[nH]cn1)C(=O)N[C@@H](CCC(N)=O)C(=O)N[C@@H](CCC(N)=O)C(=O)N[C@@H](CC(=O)O)C(=O)N[C@@H](Cc1ccccc1)C(=O)N[C@H](C(=O)N[C@@H](CC(N)=O)C(=O)N[C@@H](Cc1c[nH]c2ccccc12)C(=O)N[C@@H](CC(C)C)C(=O)N[C@@H](CC(C)C)C(=O)N[C@@H](C)C(=O)N[C@@H](CCC(N)=O)C(=O)N[C@@H](CCCCN)C(=O)NCC(=O)N[C@@H](CCCCN)C(=O)N[C@@H](CCCCN)C(=O)N[C@@H](CC(N)=O)C(=O)N[C@@H](CC(=O)O)C(=O)N[C@@H](Cc1c[nH]c2ccccc12)C(=O)N[C@@H](CCCCN)C(=O)N[C@@H](Cc1c[nH]cn1)C(=O)N[C@@H](CC(N)=O)C(=O)N[C@H](C(=O)N[C@H](C(=O)N[C@@H](CCC(N)=O)C(=O)O)[C@@H](C)O)[C@@H](C)CC)C(C)C)[C@@H](C)CC)[C@@H](C)CC)[C@@H](C)CC)[C@@H](C)O` [GIP (Abu^2)]: the “insulin secretion from BRIN-BD11 cells” value in the series on BRIN-BD11 cells is “complex pattern of responsiveness dependent on glucose concentration and dose employed”. In addition, in series [1], the “% Intact peptide remaining after incubations with human plasma” value worked out at 100%; the “effect of DPA on plasma degradation of the peptide” value is reported as “complete abolition of degradation”; the amount remaining at 2 h, 20 µg/ml is 38 ± 1%; the fraction remaining at 4 h, 20 µg/ml was found to be 28 ± 2%. Also, the share remaining at 8 h, 20 µg/ml in series [1] stood at 0%. The fraction remaining at 24 h, 20 µg/ml in series [1] (pH 7.8, 24 h) was found to be 0%. The share remaining at 24 h, 20 µg/ml in series [1] (setting [2]) amounted to 100%. On DPP IV, the “resistance to in vitro degradation with DPP IV relative to native GIP” value (shortened to “resistance … with DPP IV relative to native GIP”) is listed as “more resistant than native GIP”; the “% Intact peptide remaining after time (h)” value came out at 100%; the fraction remaining at 2 h, 1 mmol/l worked out at 38 ± 1%; the fraction remaining at 4 h, 1 mmol/l was found to be 28 ± 2%. Besides, at DPP IV, the fraction remaining at 8 h, 1 mmol/l came to 0% and the share remaining at 24 h, 1 mmol/l was determined as 0%.
`CC[C@H](C)[C@H](NC(=O)[C@H](CO)NC(=O)[C@H](Cc1ccc(O)cc1)NC(=O)[C@H](CC(=O)O)NC(=O)[C@H](CO)NC(=O)[C@@H](NC(=O)[C@H](Cc1ccccc1)NC(=O)[C@@H](NC(=O)CNC(=O)[C@H](CCC(=O)O)NC(=O)CN(C)C(=O)[C@@H](N)Cc1ccc(O)cc1)[C@@H](C)O)[C@@H](C)CC)C(=O)N[C@@H](C)C(=O)N[C@@H](CCSC)C(=O)N[C@@H](CC(=O)O)C(=O)N[C@@H](CCCCN)C(=O)N[C@H](C(=O)N[C@@H](Cc1c[nH]cn1)C(=O)N[C@@H](CCC(N)=O)C(=O)N[C@@H](CCC(N)=O)C(=O)N[C@@H](CC(=O)O)C(=O)N[C@@H](Cc1ccccc1)C(=O)N[C@H](C(=O)N[C@@H](CC(N)=O)C(=O)N[C@@H](Cc1c[nH]c2ccccc12)C(=O)N[C@@H](CC(C)C)C(=O)N[C@@H](CC(C)C)C(=O)N[C@@H](C)C(=O)N[C@@H](CCC(N)=O)C(=O)N[C@@H](CCCCN)C(=O)NCC(=O)N[C@@H](CCCCN)C(=O)N[C@@H](CCCCN)C(=O)N[C@@H](CC(N)=O)C(=O)N[C@@H](CC(=O)O)C(=O)N[C@@H](Cc1c[nH]c2ccccc12)C(=O)N[C@@H](CCCCN)C(=O)N[C@@H](Cc1c[nH]cn1)C(=O)N[C@@H](CC(N)=O)C(=O)N[C@H](C(=O)N[C@H](C(=O)N[C@@H](CCC(N)=O)C(=O)O)[C@@H](C)O)[C@@H](C)CC)C(C)C)[C@@H](C)CC` [GIP (Sar^2)]: the “insulin secretion from BRIN-BD11 cells” value in the series with BRIN-BD11 cells is “complex pattern of responsiveness dependent on glucose concentration and dose employed”. Further, in series [1], the “% Intact peptide remaining after incubations with human plasma” value amounted to 100%; the share remaining at 2 h, 20 µg/ml came to 28 ± 2%; the amount remaining at 4 h, 20 µg/ml is 8%; the fraction remaining at 8 h, 20 µg/ml amounted to 0%. In series [1] (Example 3, summary of Table 2), the “plasma degradation” value was “resistance to plasma degradation”. For the same compound, the fraction remaining at 24 h, 20 µg/ml in series [1] (pH 7.8, 24 h) was 0%. Besides, the share remaining at 24 h, 20 µg/ml in series [1] (setting [2]) was determined as 100%. At DPP IV, the “resistance … with DPP IV relative to native GIP” value is “less resistant”; the “% Intact peptide remaining after time (h)” value came out at 100%; the fraction remaining at 2 h, 1 mmol/l turned out to be 28 ± 2%; the amount remaining at 4 h, 1 mmol/l stood at 8%. Further, on DPP IV, the amount remaining at 8 h, 1 mmol/l came to 0% and the share remaining at 24 h, 1 mmol/l was determined as 0%.
With `CC[C@H](C)[C@H](NC(=O)[C@H](CO)NC(=O)[C@H](Cc1ccc(O)cc1)NC(=O)[C@H](CC(=O)O)NC(=O)[C@H](CO)NC(=O)[C@@H](NC(=O)[C@H](Cc1ccccc1)NC(=O)[C@@H](NC(=O)CNC(=O)[C@H](CCC(=O)O)NC(=O)[C@H](C)NC(=O)[C@H](Cc1ccc(O)cc1)NC(C)=O)[C@@H](C)O)[C@@H](C)CC)C(=O)N[C@@H](C)C(=O)N[C@@H](CCSC)C(=O)N[C@@H](CC(=O)O)C(=O)N[C@@H](CCCCN)C(=O)N[C@H](C(=O)N[C@@H](Cc1c[nH]cn1)C(=O)N[C@@H](CCC(N)=O)C(=O)N[C@@H](CCC(N)=O)C(=O)N[C@@H](CC(=O)O)C(=O)N[C@@H](Cc1ccccc1)C(=O)N[C@H](C(=O)N[C@@H](CC(N)=O)C(=O)N[C@@H](Cc1c[nH]c2ccccc12)C(=O)N[C@@H](CC(C)C)C(=O)N[C@@H](CC(C)C)C(=O)N[C@@H](C)C(=O)N[C@@H](CCC(N)=O)C(=O)N[C@@H](CCCCN)C(=O)NCC(=O)N[C@@H](CCCCN)C(=O)N[C@@H](CCCCN)C(=O)N[C@@H](CC(N)=O)C(=O)N[C@@H](CC(=O)O)C(=O)N[C@@H](Cc1c[nH]c2ccccc12)C(=O)N[C@@H](CCCCN)C(=O)N[C@@H](Cc1c[nH]cn1)C(=O)N[C@@H](CC(N)=O)C(=O)N[C@H](C(=O)N[C@H](C(=O)N[C@@H](CCC(N)=O)C(=O)O)[C@@H](C)O)[C@@H](C)CC)C(C)C)[C@@H](C)CC` [N-Acetyl-GIP], on DPP IV, the “resistance … with DPP IV relative to native GIP” value is given as “more resistant than native GIP”; the “% Intact peptide remaining after time (h)” value turned out to be 100%; the amount remaining at 2 h, 1 mmol/l turned out to be 100%; the fraction remaining at 4 h, 1 mmol/l came out at 100%. The share remaining at 8 h, 1 mmol/l on DPP IV came to 100%.
As for “Ile-Pro-Ile [diprotin A, reference compound]”, the “effect of DPP IV inhibitor on degradation of GIP by plasma” value in series [1] is “completely inhibited degradation of the peptide by plasma”.
In the case of “YSEGTFISDYSIAMDKIHQQDFVNWLLAQKGKKNDWKHNITQ-OH [GIP (Ser^2)]”, in the series with BRIN-BD11 cells, the “insulin secretion from BRIN-BD11 cells” value is “strong response”. Also, in series [1], the “% Intact peptide remaining after incubations with human plasma” value is listed as 100%; the “effect of DPA on plasma degradation of the peptide” value is listed as “complete abolition of degradation”; the share remaining at 2 h, 20 µg/ml worked out at 77 ± 2%; the fraction remaining at 4 h, 20 µg/ml was 60 ± 1%. Moreover, the amount remaining at 8 h, 20 µg/ml in series [1] turned out to be 32 ± 4%. Also, the share remaining at 24 h, 20 µg/ml in series [1] (pH 7.8, 24 h) was found to be 0%. In series [1] (setting [2]), the share remaining at 24 h, 20 µg/ml was 63 ± 3%. On DPP IV, the “resistance … with DPP IV relative to native GIP” value was “more resistant than native GIP”; the “% Intact peptide remaining after time (h)” value stood at 100%; the amount remaining at 2 h, 1 mmol/l came to 77 ± 2%; the fraction remaining at 4 h, 1 mmol/l was determined as 60 ± 1%. On DPP IV, the amount remaining at 8 h, 1 mmol/l amounted to 32 ± 4% and the fraction remaining at 24 h, 1 mmol/l is 0%.
